Results from patent US4226610A, “Herbicidal compounds, preparation thereof and herbicides containing the same” (Meiji Selka Kaisha, Ltd., priority 1978, dated 1980).
Where a name gives a salt, the structure may show the parent alone.

What was measured:
water hyacinth = assay: Experiment 5 foliar application to water hyacinths; assay type: in vivo, Eichhornia crassipes Solms; design: key to Killing index: 0 = no effect, 5 = death; settings: for Reproduction-inhibiting effect: 3 months; for Killing index: 21 days
From the text: (§1) The detail of the assessment made in the following Experiments of the invention was as follows:
(§2) Four months after treatment, evaluation was made for inhibition of reproduction expressed in terms of symbols ranging from (-) to (+++) where (-) means no reproduction, namely complete suppression of reproduction, (±) remarkable suppression of reproduction; (+) considerable suppression of reproduction; (++) medium supprestion of reproduction; and (+++) no suppression of reproduction.
Water was placed in 20 cm.×30 cm. plastic vessels and a liquid fertilizer was added thereto. Two water hyacinths were floated in each vessel.
0.1 or 0.2% aqueous solutions of each of the compounds of the invention listed in Table 7 were sprayed by foliar application in an amount of 100 liter per 10 are. As a surfactant, 0.1% of octylphenyl polyoxyethanol was added.
The killing index (0, no effect; 5, death) after 21 days and 3 months, and the reproduction-inhibiting effect (-, no reproduction; +++, maximum reproduction) after 3 months were determined.

manna grass = assay: Experiment 1 foliar application to naturally growing weeds; assay type: in vivo, Digitaria adsceudes Henr.; settings: 2 months, monosodium salt
From the text: as §1, §2
(§3) The compounds of the invention and other compounds for comparison listed in Table 3 were diluted to prescribed concentrations and sprayed to naturally growing weeds by foliar application in an amount of 150 liter per 10 are.
(§4) 0.1% of octylphenyl polyoxyethanol was added as a surfactant.
(§5) The killing index (0, no effect, 5, death) after 21 days, and the reproduction-inhibiting effect (-, no reproduction; +++, maximum reproduction) after 2 months (manna grass and cockspar grass) and 4 months (other weeds) were determined.

cockspar grass = assay: as above; assay type: in vivo, Echinochloa Crusgalli P. Beauv.; settings: 2 months, monosodium salt
From the text: as §1, §2, §3, §4, §5

yabugarashi = assay: as above; assay type: in vivo, Cayratia japonica Houtt.; settings: 4 months, monosodium salt
From the text: as §1, §2, §3, §4, §5

purple nutsedge = assay: as above; assay type: in vivo, Cyperus rotundus L.; settings: 4 months, monosodium salt
From the text: as §1, §2, §3, §4, §5

warunasubi = assay: as above; assay type: in vivo, Solanum carolinensis L.; settings: 4 months, monosodium salt
From the text: as §1, §2, §3, §4, §5

hedge bindweed = assay: as above; assay type: in vivo, Calystegis hederacea Wall.; settings: 4 months, monosodium salt
From the text: as §1, §2, §3, §4, §5

white clover = assay: as above; assay type: in vivo, Trifolium repens L.; settings: monosodium salt; for Reproduction-inhibiting effect: 4 months; for Killing index of Upperground parts: 21 days
From the text: as §1, §2, §3, §4, §5

azumanezasa = assay: as above; assay type: in vivo, Pleioblastus Chino Makino; settings: 4 months
From the text: as §1, §2, §3, §4, §5

chigaya = assay: as above; assay type: in vivo, Imperata cylindrica Beauv.; settings: 4 months
From the text: as §1, §2, §3, §4, §5

kumaichigo = assay: Experiment 2 foliar application in Japanese cypress afforested land; assay type: in vivo, Rubus crataegifolius Bunge; settings: 0.25%; after 30 days; monosodium salt
Experimental: as §1
The compounds of the invention and other compounds listed in Table 4. were diluted to prescribed concentrations and sprayed to shrubs by foliar application in a Japanese cypress afforested land in an amount of 150 liter per 10 are.
After 30 days and 3 months, the killing index (0, no effect; 5, death) was determined.
The heights of plants were 50-70 cm. for Japanese cypress, about 50 cm. for chestnut, 50-90 cm. for miyakozasa, about 100 cm. for eulalia and 70-100 cm. for kumaichigo, respectively.

Japanese bush cranberry = assay: Experiment 3 foliar application to naturally growing shrubs; assay type: in vivo, Viburnum dilatatum Thunb.; settings: after 3 months
From the text: as §1, §2
(§6) The compounds of the invention and other compounds listed in Table 5. were diluted to prescribed concentrations and sprayed onto naturally growing shrubs by foliar application in an amount of 150 liter per 10 are.
(§7) 0.1% of octylphenyl polyoxyethanol was added as the surfactant. The killing index (0, no effect; 5, death) after 1 month and 3 months, and the reproduction-inhibiting effect (-, no reproduction; +++, maximum reproduction) after 3 months were determined.

kiichigo = assay: as above; assay type: in vivo, Rubus palmatsu Thunb. forma coptophyllus Makino; settings: after 3 months
From the text: as §1, §2, §6, §7

Japanese prickly ash = assay: as above; assay type: in vivo, Xanthoxylum piperitum DC.; settings: after 3 months
From the text: as §1, §2, §6, §7

lace shrub = assay: as above; assay type: in vivo, Stephanandra incisa Zabel; settings: after 3 months
From the text: as §1, §2, §6, §7

yamazakura = assay: as above; assay type: in vivo, Prunus donarium Sieb. var. spontanae Makino; settings: after 3 months
From the text: as §1, §2, §6, §7

torch azalea = assay: as above; assay type: in vivo, Rhododendoron Kaempferi Planch.; settings: after 3 months
From the text: as §1, §2, §6, §7

oak = assay: as above; assay type: in vivo, Quercus serrata Thunb; settings: after 3 months
From the text: as §1, §2, §6, §7

Structure (SMILES): CP(=O)(O)CCC(N)C(=O)O (racemic) [DL-AMPB diammonium salt]
- Reproduction-inhibiting effect (water hyacinth; 0.1%): ++
- Reproduction-inhibiting effect (water hyacinth; 0.2%): ±

Structure (SMILES): CP(=O)(O)CCC(N)C(=O)O (racemic) [DL-AMPB dipotassium salt]
- Reproduction-inhibiting effect (water hyacinth; 0.1%): ++
- Reproduction-inhibiting effect (water hyacinth; 0.2%): ±

Structure (SMILES): CP(=O)(O)CCC(N)C(=O)O (racemic) [DL-AMPB disodium salt]
- Reproduction-inhibiting effect (water hyacinth; 0.1%): ++
- Reproduction-inhibiting effect (water hyacinth; 0.2%): ±

Structure (SMILES): CP(=O)(O)CCC(N)C(=O)O (racemic) [DL-AMPB mono-n-butylammonium salt]
- Reproduction-inhibiting effect (water hyacinth; 0.1%): ++
- Reproduction-inhibiting effect (water hyacinth; 0.2%): ±

Structure (SMILES): CP(=O)(O)CCC(N)C(=O)O (racemic) [DL-AMPB monodiethylammonium salt]
- Reproduction-inhibiting effect (water hyacinth; 0.1%): ++
- Reproduction-inhibiting effect (water hyacinth; 0.2%): ±

Structure (SMILES): CP(=O)(O)CCC(N)C(=O)O (racemic) [DL-AMPB monoisopropylammonium salt]
- Reproduction-inhibiting effect (water hyacinth; 0.1%): ++
- Reproduction-inhibiting effect (water hyacinth; 0.2%): ±

Structure (SMILES): CP(=O)(O)CCC(N)C(=O)O (racemic) [DL-AMPB monopotassium salt]
- Reproduction-inhibiting effect (water hyacinth; 0.1%): ++
- Reproduction-inhibiting effect (water hyacinth; 0.2%): ±

Structure (SMILES): CP(=O)(O)CCC(N)C(=O)O (racemic) [DL-AMPB, DL-2-amino-4-methylphosphinobutanoic acid]
- Reproduction-inhibiting effect (water hyacinth; 0.1%): ++
- Reproduction-inhibiting effect (water hyacinth; 0.2%): ±

Structure (SMILES): CP(=O)(O)CC[C@H](N)C(=O)O [L-AMPB diammonium salt]
- Reproduction-inhibiting effect (water hyacinth; 0.1%): ±
- Reproduction-inhibiting effect (water hyacinth; 0.2%): -

Structure (SMILES): CP(=O)(O)CC[C@H](N)C(=O)O [L-AMPB dipotassium salt]
- Reproduction-inhibiting effect (water hyacinth; 0.1%): ±
- Reproduction-inhibiting effect (water hyacinth; 0.2%): -

Structure (SMILES): CP(=O)(O)CC[C@H](N)C(=O)O [L-AMPB disodium salt]
- Reproduction-inhibiting effect (water hyacinth; 0.1%): ±
- Reproduction-inhibiting effect (water hyacinth; 0.2%): -

Structure (SMILES): CP(=O)(O)CC[C@H](N)C(=O)O [L-AMPB mono-n-butylammonium salt]
- Reproduction-inhibiting effect (water hyacinth; 0.1%): ±
- Reproduction-inhibiting effect (water hyacinth; 0.2%): -

Structure (SMILES): CP(=O)(O)CC[C@H](N)C(=O)O [L-AMPB monodiethylammonium salt]
- Reproduction-inhibiting effect (water hyacinth; 0.1%): ±
- Reproduction-inhibiting effect (water hyacinth; 0.2%): -

Structure (SMILES): CP(=O)(O)CC[C@H](N)C(=O)O [L-AMPB monoisopropylammonium salt]
- Reproduction-inhibiting effect (water hyacinth; 0.1%): ±
- Reproduction-inhibiting effect (water hyacinth; 0.2%): -

Structure (SMILES): CP(=O)(O)CC[C@H](N)C(=O)O [L-AMPB monopotassium salt]
- Reproduction-inhibiting effect (water hyacinth; 0.1%): ±
- Reproduction-inhibiting effect (water hyacinth; 0.2%): -

Structure (SMILES): CP(=O)(O)CC[C@H](N)C(=O)O [L-AMPB, L-2-amino-4-methylphosphinobutanoic acid]
- Reproduction-inhibiting effect (water hyacinth; 0.1%): ±
- Reproduction-inhibiting effect (water hyacinth; 0.2%): -

Structure (SMILES): C[C@H](NC(=O)[C@H](C)NC(=O)[C@@H](N)CCP(C)(=O)O)C(=O)O [SF-1293 diammonium salt]
- Reproduction-inhibiting effect (water hyacinth; 0.1%): +
- Reproduction-inhibiting effect (water hyacinth; 0.2%): -
- Killing index (water hyacinth; 0.2%): 4.5

Structure (SMILES): C[C@H](NC(=O)[C@H](C)NC(=O)[C@@H](N)CCP(C)(=O)O)C(=O)O [SF-1293 dipotassium salt]
- Reproduction-inhibiting effect (water hyacinth; 0.1%): +
- Reproduction-inhibiting effect (water hyacinth; 0.2%): -
- Killing index (water hyacinth; 0.2%): 4.5

Structure (SMILES): C[C@H](NC(=O)[C@H](C)NC(=O)[C@@H](N)CCP(C)(=O)O)C(=O)O [SF-1293 disodium salt]
- Reproduction-inhibiting effect (water hyacinth; 0.1%): +
- Reproduction-inhibiting effect (water hyacinth; 0.2%): -
- Killing index (water hyacinth; 0.2%): 4.5

Structure (SMILES): C[C@H](NC(=O)[C@H](C)NC(=O)[C@@H](N)CCP(C)(=O)O)C(=O)O [SF-1293 mono-n-butylammonium salt]
- Reproduction-inhibiting effect (water hyacinth; 0.1%): +
- Reproduction-inhibiting effect (water hyacinth; 0.2%): -
- Killing index (water hyacinth; 0.2%): 4.5

Structure (SMILES): C[C@H](NC(=O)[C@H](C)NC(=O)[C@@H](N)CCP(C)(=O)O)C(=O)O [SF-1293 monodiethylammonium salt]
- Reproduction-inhibiting effect (water hyacinth; 0.1%): +
- Reproduction-inhibiting effect (water hyacinth; 0.2%): -
- Killing index (water hyacinth; 0.2%): 4.5

Structure (SMILES): C[C@H](NC(=O)[C@H](C)NC(=O)[C@@H](N)CCP(C)(=O)O)C(=O)O [SF-1293 monodiisopropylammonium salt]
- Reproduction-inhibiting effect (water hyacinth; 0.1%): +
- Reproduction-inhibiting effect (water hyacinth; 0.2%): -
- Killing index (water hyacinth; 0.2%): 4.5

Structure (SMILES): C[C@H](NC(=O)[C@H](C)NC(=O)[C@@H](N)CCP(C)(=O)O)C(=O)O [SF-1293 monopotassium salt]
- Reproduction-inhibiting effect (water hyacinth; 0.1%): +
- Reproduction-inhibiting effect (water hyacinth; 0.2%): -
- Killing index (water hyacinth; 0.2%): 4.5

Structure (SMILES): C[C@H](NC(=O)[C@H](C)NC(=O)[C@@H](N)CCP(C)(=O)O)C(=O)O [SF-1293, (L-2-amino-4-methylphosphinobutyryl)-L-alanyl-L-alanine]
- Reproduction-inhibiting effect (water hyacinth; 0.1%): +
- Reproduction-inhibiting effect (water hyacinth; 0.2%): -
- Killing index (water hyacinth; 0.2%): 4.5

Structure (SMILES): C[C@H](NC(=O)[C@H](C)NC(=O)[C@@H](N)CCP(C)(=O)O)C(=O)O [monosodium salt]
- Reproduction-inhibiting effect (manna grass; 0.05%): +++
- Reproduction-inhibiting effect (manna grass; 0.1%): ++
- Reproduction-inhibiting effect (manna grass; 0.2%): ±
- Reproduction-inhibiting effect (cockspar grass; 0.05%): +++
- Reproduction-inhibiting effect (cockspar grass; 0.1%): ++
- Reproduction-inhibiting effect (cockspar grass; 0.2%): ±
- Reproduction-inhibiting effect (yabugarashi; 0.05%): +++
- Reproduction-inhibiting effect (yabugarashi; 0.1%): ++
- Reproduction-inhibiting effect (yabugarashi; 0.2%): ±
- Reproduction-inhibiting effect (purple nutsedge; 0.05%): +++
- Reproduction-inhibiting effect (purple nutsedge; 0.1%): +++
- Reproduction-inhibiting effect (purple nutsedge; 0.2%): +
- Reproduction-inhibiting effect (warunasubi; 0.05%): +++
- Reproduction-inhibiting effect (warunasubi; 0.1%): +++
- Reproduction-inhibiting effect (warunasubi; 0.2%): +
- Reproduction-inhibiting effect (hedge bindweed; 0.05%): +++
- Reproduction-inhibiting effect (hedge bindweed; 0.1%): +++
- Reproduction-inhibiting effect (hedge bindweed; 0.2%): +++
- Reproduction-inhibiting effect (white clover; 0.05%): +++
- Killing index of Upperground parts (white clover; 0.05%): 1.5
- Reproduction-inhibiting effect (white clover; 0.1%): +++
- Killing index of Upperground parts (white clover; 0.1%): 3.5
- Reproduction-inhibiting effect (white clover; 0.2%): +
- Reproduction-inhibiting effect (azumanezasa; 0.05%, monosodium salt): +++
- Reproduction-inhibiting effect (azumanezasa; 0.1%, monosodium salt): +
- Reproduction-inhibiting effect (azumanezasa; 0.2%): -
- Reproduction-inhibiting effect (chigaya; 0.1%, monosodium salt): ++
- Reproduction-inhibiting effect (chigaya; 0.2%): -
- Killing index (kumaichigo): 4.5
- Reproduction-inhibiting (Japanese bush cranberry; 0.05%, monosodium salt): +++
- Reproduction-inhibiting (Japanese bush cranberry; 0.1%, monosodium salt): +
- Reproduction-inhibiting (Japanese bush cranberry; 0.2%): -
- Reproduction-inhibiting (kiichigo; 0.05%, monosodium salt): +++
- Reproduction-inhibiting (kiichigo; 0.1%, monosodium salt): +
- Reproduction-inhibiting (kiichigo; 0.2%): -
- Reproduction-inhibiting (Japanese prickly ash; 0.05%, monosodium salt): +++
- Reproduction-inhibiting (Japanese prickly ash; 0.1%, monosodium salt): +
- Reproduction-inhibiting (Japanese prickly ash; 0.2%): -
- Reproduction-inhibiting (lace shrub; 0.05%, monosodium salt): +++
- Reproduction-inhibiting (lace shrub; 0.1%, monosodium salt): ++
- Reproduction-inhibiting (lace shrub; 0.2%): -
- Reproduction-inhibiting (yamazakura; 0.05%, monosodium salt): +++
- Reproduction-inhibiting (yamazakura; 0.1%, monosodium salt): ++
- Reproduction-inhibiting (yamazakura; 0.2%): -
- Reproduction-inhibiting (torch azalea; 0.05%, monosodium salt): +++
- Reproduction-inhibiting (torch azalea; 0.1%, monosodium salt): ++
- Reproduction-inhibiting (torch azalea; 0.2%): -
- Reproduction-inhibiting (oak; 0.05%, monosodium salt): +++
- Reproduction-inhibiting (oak; 0.1%, monosodium salt): ++
- Reproduction-inhibiting (oak; 0.2%): -
- Reproduction-inhibiting effect (water hyacinth; 0.1%, listed as SF-1293 monosodium salt, monosodium salt): +
- Reproduction-inhibiting effect (water hyacinth; 0.2%): -
- Killing index (water hyacinth; 0.2%, listed as SF-1293 monosodium salt, monosodium salt): 4.5
